This note sets out measurements from ChEMBL document CHEMBL4350990, “Benzensulfonamides bearing spyrohydantoin moieties act as potent inhibitors of human carbonic anhydrases II and VII and show neuropathic pain attenuating effects” (Eur J Med Chem, 2019).

The source made the active and inactive calls. The rule behind the calls is not given here.

One test deals with Carbonic anhydrase 1 (Homo sapiens, UniProt P00915). The experiment in a line: Inhibition of human carbonic anhydrase 1 incubated for 15 mins prior to testing by stopped-flow CO2 hydration assay.
Chain of Carbonic anhydrase 1 (P00915 whole entry): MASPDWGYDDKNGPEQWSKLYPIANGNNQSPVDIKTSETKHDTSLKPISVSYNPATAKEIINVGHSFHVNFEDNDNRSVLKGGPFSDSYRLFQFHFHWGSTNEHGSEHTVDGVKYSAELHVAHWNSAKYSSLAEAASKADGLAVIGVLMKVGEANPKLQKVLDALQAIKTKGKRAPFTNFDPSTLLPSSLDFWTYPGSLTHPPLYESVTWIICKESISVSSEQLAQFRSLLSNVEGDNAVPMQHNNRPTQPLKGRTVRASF
Another test addresses Carbonic anhydrase 2 (Homo sapiens, UniProt P00918). The experiment in a line: Inhibition of human carbonic anhydrase 2 incubated for 15 mins prior to testing by stopped-flow CO2 hydration assay.
The target of a further test is Carbonic anhydrase 7 (Homo sapiens, UniProt P43166). The experiment in a line: Inhibition of human carbonic anhydrase 7 incubated for 15 mins prior to testing by stopped-flow CO2 hydration assay.
Chain of Carbonic anhydrase 7 (P43166 whole entry): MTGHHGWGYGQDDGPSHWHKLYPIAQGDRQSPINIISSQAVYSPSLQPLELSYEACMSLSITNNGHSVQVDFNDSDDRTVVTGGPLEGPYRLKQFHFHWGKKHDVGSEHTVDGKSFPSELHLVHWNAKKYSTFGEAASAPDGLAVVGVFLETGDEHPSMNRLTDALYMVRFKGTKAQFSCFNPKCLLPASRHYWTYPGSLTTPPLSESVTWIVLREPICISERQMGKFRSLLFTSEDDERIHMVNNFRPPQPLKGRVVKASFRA
A further test addresses Carbonic anhydrase 12 (Homo sapiens, UniProt O43570). The experiment in a line: Inhibition of human carbonic anhydrase 12 incubated for 15 mins prior to testing by stopped-flow CO2 hydration assay.
In the next test the target is Carbonic anhydrase 9 (Homo sapiens, UniProt Q16790). The experiment in a line: Inhibition of human carbonic anhydrase 9 incubated for 15 mins prior to testing by stopped-flow CO2 hydration assay.
In another test the target is Carbonic anhydrase 13 (Homo sapiens, UniProt Q8N1Q1). The experiment in a line: Inhibition of human carbonic anhydrase 13 incubated for 15 mins prior to testing by stopped-flow CO2 hydration assay.
Chain of Carbonic anhydrase 13 (Q8N1Q1 whole entry): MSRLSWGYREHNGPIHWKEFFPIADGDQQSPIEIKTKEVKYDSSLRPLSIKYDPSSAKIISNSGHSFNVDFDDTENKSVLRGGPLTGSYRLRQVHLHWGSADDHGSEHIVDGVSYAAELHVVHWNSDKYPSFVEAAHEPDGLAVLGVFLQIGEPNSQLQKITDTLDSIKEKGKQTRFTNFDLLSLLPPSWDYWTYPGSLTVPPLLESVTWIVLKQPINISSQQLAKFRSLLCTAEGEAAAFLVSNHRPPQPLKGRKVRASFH
Test [1] has as its system Mus musculus. The experiment in a line: Analgesic activity in oxaliplatin-induced neuropathic pain CD-1 albino mouse model assessed as decrease in pain-related behaviour measured as licking latency at 100 mg/kg, po treated on day 15 post oxaliplatin treatment and measured after 45 mins by cold plate test. The test is classed as functional, organism-based.
Another test addresses Carbonic anhydrase 3 (Homo sapiens, UniProt P07451). The experiment in a line: Inhibition of human carbonic anhydrase 3 incubated for 15 mins prior to testing by stopped-flow CO2 hydration assay.
A further test addresses Carbonic anhydrase 4 (Homo sapiens, UniProt P22748). The experiment in a line: Inhibition of human carbonic anhydrase 4 incubated for 15 mins prior to testing by stopped-flow CO2 hydration assay.
For test [2], the target named is Carbonic anhydrase 5A, mitochondrial (Homo sapiens, UniProt P35218). The experiment in a line: Inhibition of human carbonic anhydrase 5A incubated for 15 mins prior to testing by stopped-flow CO2 hydration assay.
Chain of Carbonic anhydrase 5A, mitochondrial (P35218 whole entry): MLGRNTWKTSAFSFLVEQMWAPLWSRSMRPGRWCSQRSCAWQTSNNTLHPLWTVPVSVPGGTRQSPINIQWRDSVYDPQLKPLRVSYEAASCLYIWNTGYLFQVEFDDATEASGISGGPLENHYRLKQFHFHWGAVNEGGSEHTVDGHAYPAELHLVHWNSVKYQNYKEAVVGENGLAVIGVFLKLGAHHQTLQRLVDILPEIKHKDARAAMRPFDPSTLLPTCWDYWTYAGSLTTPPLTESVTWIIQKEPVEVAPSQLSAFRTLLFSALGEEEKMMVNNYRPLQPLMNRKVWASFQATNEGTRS
Test [3] concerns the target Carbonic anhydrase 5B, mitochondrial (Homo sapiens, UniProt Q9Y2D0). The experiment in a line: Inhibition of human carbonic anhydrase 5B incubated for 15 mins prior to testing by stopped-flow CO2 hydration assay.
The target of the next test is Carbonic anhydrase 6 (Homo sapiens, UniProt P23280). The experiment in a line: Inhibition of human carbonic anhydrase 6 incubated for 15 mins prior to testing by stopped-flow CO2 hydration assay.
Chain of Carbonic anhydrase 6 (P23280 whole entry): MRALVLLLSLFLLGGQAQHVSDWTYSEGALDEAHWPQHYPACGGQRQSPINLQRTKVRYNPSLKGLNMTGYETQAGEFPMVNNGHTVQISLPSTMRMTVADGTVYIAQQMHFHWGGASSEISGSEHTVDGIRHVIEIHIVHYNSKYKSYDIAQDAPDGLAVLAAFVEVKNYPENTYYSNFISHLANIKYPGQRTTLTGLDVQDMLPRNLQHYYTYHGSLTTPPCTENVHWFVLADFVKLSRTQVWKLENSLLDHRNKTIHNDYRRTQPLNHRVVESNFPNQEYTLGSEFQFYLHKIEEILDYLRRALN
Test [4] relates to Mus musculus. The experiment in a line: Analgesic activity in orally dosed oxaliplatin-induced neuropathic pain CD-1 albino mouse model assessed as decrease in pain-related behaviour measured as licking latency treated on day 15 post oxaliplatin treatment by cold plate test. The test is classed as functional, organism-based.
Test [5] concerns Mus musculus. The experiment in a line: Analgesic activity in oxaliplatin-induced neuropathic pain CD-1 albino mouse model assessed as decrease in pain-related behaviour measured as licking latency at 100 mg/kg, po treated on day 15 post oxaliplatin treatment and measured after 45 to 60 mins by cold plate test. In kind it is functional, organism-based.
Test [6] relates to Mus musculus. The experiment in a line: Analgesic activity in oxaliplatin-induced neuropathic pain CD-1 albino mouse model assessed as licking latency at 30 to 100 mg/kg, po treated on day 15 post oxaliplatin treatment by cold plate test. In kind it is functional, organism-based.

Chain of Carbonic anhydrase 5B, mitochondrial (Q9Y2D0 whole entry): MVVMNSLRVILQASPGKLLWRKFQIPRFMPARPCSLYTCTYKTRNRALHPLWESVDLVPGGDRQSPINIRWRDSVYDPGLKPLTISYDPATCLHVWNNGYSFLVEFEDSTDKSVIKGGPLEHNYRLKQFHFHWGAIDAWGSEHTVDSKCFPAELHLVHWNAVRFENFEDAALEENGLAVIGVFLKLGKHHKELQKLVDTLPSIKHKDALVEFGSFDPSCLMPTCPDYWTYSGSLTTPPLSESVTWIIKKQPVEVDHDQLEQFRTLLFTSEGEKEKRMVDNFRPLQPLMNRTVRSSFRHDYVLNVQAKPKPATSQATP
Chain of Carbonic anhydrase 12 (O43570 whole entry): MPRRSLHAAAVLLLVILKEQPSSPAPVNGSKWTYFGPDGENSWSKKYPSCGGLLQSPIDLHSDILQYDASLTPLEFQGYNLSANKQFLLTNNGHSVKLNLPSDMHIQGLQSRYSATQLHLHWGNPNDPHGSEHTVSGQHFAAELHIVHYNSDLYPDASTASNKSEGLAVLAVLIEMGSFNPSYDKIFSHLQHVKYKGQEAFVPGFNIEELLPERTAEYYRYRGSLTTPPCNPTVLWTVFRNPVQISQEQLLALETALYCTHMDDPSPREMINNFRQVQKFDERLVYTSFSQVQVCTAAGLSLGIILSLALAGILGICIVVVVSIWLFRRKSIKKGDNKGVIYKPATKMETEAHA
Chain of Carbonic anhydrase 3 (P07451 whole entry): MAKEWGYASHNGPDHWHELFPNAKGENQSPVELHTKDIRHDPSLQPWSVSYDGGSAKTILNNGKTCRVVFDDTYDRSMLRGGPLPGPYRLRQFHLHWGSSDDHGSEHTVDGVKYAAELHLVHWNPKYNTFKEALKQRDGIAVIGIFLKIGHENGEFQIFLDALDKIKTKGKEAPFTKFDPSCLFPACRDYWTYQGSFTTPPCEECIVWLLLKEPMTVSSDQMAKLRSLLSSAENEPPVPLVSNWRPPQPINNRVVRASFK
Chain of Carbonic anhydrase 4 (P22748 whole entry): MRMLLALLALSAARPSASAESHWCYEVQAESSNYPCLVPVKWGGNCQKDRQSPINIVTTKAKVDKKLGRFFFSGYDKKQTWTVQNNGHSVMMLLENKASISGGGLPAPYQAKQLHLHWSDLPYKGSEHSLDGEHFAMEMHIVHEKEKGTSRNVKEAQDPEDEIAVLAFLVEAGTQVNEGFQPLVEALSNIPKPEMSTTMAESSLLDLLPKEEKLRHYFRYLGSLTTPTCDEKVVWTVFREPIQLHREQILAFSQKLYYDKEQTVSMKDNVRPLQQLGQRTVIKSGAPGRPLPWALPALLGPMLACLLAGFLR

As for `NS(=O)(=O)c1ccc(C[Se]c2ccc(NC(=O)CN3C(=O)NC4(CCCCCC4)C3=O)cc2)cc1`, the Ki – broadly, a dissociation constant, usually derived from enzyme kinetics or from competition with a known ligand – at Carbonic anhydrase 1 turned out to be 0.384 µM; at Carbonic anhydrase 2 it was 0.0228 µM; on Carbonic anhydrase 7 it was 0.0047 µM; on Carbonic anhydrase 12 it was 0.0494 µM; on Carbonic anhydrase 9, 0.0064 µM; on Carbonic anhydrase 13, 0.0884 µM. Further, the outcome in the test with Mus musculus [1] was Active.

Consider `NS(=O)(=O)c1ccc(NC(=O)CN2C(=O)NC3(CCCCCC3)C2=O)cc1`, for which the Ki is 0.237 µM on Carbonic anhydrase 1; 0.0012 µM at Carbonic anhydrase 2; 0.0008 µM at Carbonic anhydrase 7; 0.0428 µM at Carbonic anhydrase 12; 0.0043 µM on Carbonic anhydrase 9; greater than 10 µM on Carbonic anhydrase 13.

As to `NS(=O)(=O)c1ccc(C[Se]c2ccc(NC(=O)CN3C(=O)NC4(CCCCC4)C3=O)cc2)cc1`, the Ki on Carbonic anhydrase 1 was 0.0636 µM; at Carbonic anhydrase 2, 0.0196 µM; at Carbonic anhydrase 7, 0.0002 µM; on Carbonic anhydrase 12 it was 0.0041 µM; on Carbonic anhydrase 9 it was 0.0033 µM; at Carbonic anhydrase 13, greater than 10 µM.

As for `CC1CCCC2(C1)NC(=O)N(CC(=O)NCCc1ccc(S(N)(=O)=O)cc1)C2=O` (stereo not given), the Ki at Carbonic anhydrase 1 is 0.306 µM; on Carbonic anhydrase 2, 0.0007 µM; at Carbonic anhydrase 3 it was greater than 10 µM; on Carbonic anhydrase 4, 7.19 µM; in test [2], 8.68 µM; in [3], greater than 10 µM. Further, the Ki at Carbonic anhydrase 6 was greater than 10 µM; on Carbonic anhydrase 7, 0.003 µM; on Carbonic anhydrase 12, 0.0834 µM; on Carbonic anhydrase 9 it was 0.477 µM; on Carbonic anhydrase 13 it was greater than 10 µM.

On to `CC1CCCC2(C1)NC(=O)N(CC(=O)Nc1ccc(S(N)(=O)=O)cc1)C2=O` (stereo not given), for which the Ki on Carbonic anhydrase 1 turned out to be 0.0803 µM; at Carbonic anhydrase 2 it was 0.0008 µM; at Carbonic anhydrase 7, 0.0015 µM; on Carbonic anhydrase 12, 0.0397 µM; on Carbonic anhydrase 9 it was 0.0026 µM; at Carbonic anhydrase 13, 5.78 µM.

Take `NS(=O)(=O)c1ccc(CNC(=O)CN2C(=O)NC3(CCCCCC3)C2=O)cc1`: the Ki on Carbonic anhydrase 1 is 0.649 µM; on Carbonic anhydrase 2, 0.0471 µM; at Carbonic anhydrase 7 it was 0.0037 µM; at Carbonic anhydrase 12, 0.0623 µM; on Carbonic anhydrase 9, 0.0035 µM; on Carbonic anhydrase 13, greater than 10 µM.

Turning to `NS(=O)(=O)c1ccc(CCNC(=O)CN2C(=O)NC3(CCCCC3)C2=O)cc1`, the Ki at Carbonic anhydrase 1 is 0.626 µM; on Carbonic anhydrase 2, 0.0071 µM; at Carbonic anhydrase 3, greater than 10 µM; on Carbonic anhydrase 4, 8.01 µM; in test [2] it was 0.534 µM; in test [3] it was 7.32 µM. The Ki is greater than 10 µM on Carbonic anhydrase 6; 0.0069 µM at Carbonic anhydrase 7; 0.0866 µM on Carbonic anhydrase 12; 0.0767 µM at Carbonic anhydrase 9; 7.41 µM on Carbonic anhydrase 13.

As to `CC1CCCC2(C1)NC(=O)N(CC(=O)Nc1ccc([Se]Cc3ccc(S(N)(=O)=O)cc3)cc1)C2=O` (stereo not given), the Ki at Carbonic anhydrase 1 was 0.0623 µM; on Carbonic anhydrase 2, 0.0007 µM; at Carbonic anhydrase 7 it was 0.0047 µM; at Carbonic anhydrase 12 it was 0.0086 µM; at Carbonic anhydrase 9, 0.0178 µM; at Carbonic anhydrase 13, 0.767 µM. In the test with Mus musculus [1], the result was Active.

Consider `CC1CCCC2(C1)NC(=O)N(CC(=O)NCc1ccc(S(N)(=O)=O)cc1)C2=O` (stereo not given), for which the Ki on Carbonic anhydrase 1 is 0.853 µM; on Carbonic anhydrase 2, 0.0083 µM; at Carbonic anhydrase 7, 0.0044 µM; on Carbonic anhydrase 12 it was 0.0333 µM; at Carbonic anhydrase 9 it was 0.229 µM; at Carbonic anhydrase 13, greater than 10 µM.

In the case of `NS(=O)(=O)c1ccc(CNC(=O)CN2C(=O)NC3(CCCC3)C2=O)cc1`, the Ki turned out to be 2.77 µM on Carbonic anhydrase 1; 0.0015 µM at Carbonic anhydrase 2; 0.0036 µM at Carbonic anhydrase 7; 0.0096 µM on Carbonic anhydrase 12; 0.093 µM at Carbonic anhydrase 9; 2.17 µM at Carbonic anhydrase 13.

Turning to `NS(=O)(=O)c1ccc(CCNC(=O)CN2C(=O)NC3(CCCCCC3)C2=O)cc1`, the Ki at Carbonic anhydrase 1 is 0.491 µM; on Carbonic anhydrase 2 it was 0.00071 µM; at Carbonic anhydrase 3, greater than 10 µM; on Carbonic anhydrase 4, 6.49 µM; in [2], 6.18 µM; in [3] it was greater than 10 µM. The Ki is greater than 10 µM at Carbonic anhydrase 6; 0.0051 µM at Carbonic anhydrase 7; 0.0629 µM on Carbonic anhydrase 12; 0.0331 µM on Carbonic anhydrase 9; greater than 10 µM at Carbonic anhydrase 13.

Consider `NS(=O)(=O)c1ccc(CNC(=O)CN2C(=O)NC3(CCCCC3)C2=O)cc1`, for which the Ki at Carbonic anhydrase 1 was 0.47 µM; at Carbonic anhydrase 2, 0.0207 µM; at Carbonic anhydrase 7, 0.0054 µM; at Carbonic anhydrase 12, 0.728 µM; on Carbonic anhydrase 9 it was 0.105 µM; at Carbonic anhydrase 13, greater than 10 µM.

In the case of `NS(=O)(=O)c1ccc(NC(=O)CN2C(=O)NC3(CCCC3)C2=O)cc1`, the Ki is 0.141 µM at Carbonic anhydrase 1; 0.0007 µM on Carbonic anhydrase 2; 0.0008 µM on Carbonic anhydrase 7; 0.0537 µM on Carbonic anhydrase 12; 0.0119 µM at Carbonic anhydrase 9; greater than 10 µM at Carbonic anhydrase 13. In addition, the Activity entry in the test on Mus musculus [4] was “Dose-dependent effect”. In the test on Mus musculus [5], the outcome was Active.

On to `NS(=O)(=O)c1ccc(CCNC(=O)CN2C(=O)NC3(CCCC3)C2=O)cc1`, for which the Ki on Carbonic anhydrase 1 is 6.33 µM; at Carbonic anhydrase 2, 0.0069 µM; on Carbonic anhydrase 3, greater than 10 µM; at Carbonic anhydrase 4, 9.66 µM; in test [2] it was 3.94 µM; in test [3], greater than 10 µM. Moreover, the Ki is greater than 10 µM at Carbonic anhydrase 6; 0.0047 µM on Carbonic anhydrase 7; 0.0062 µM on Carbonic anhydrase 12; 0.122 µM at Carbonic anhydrase 9; greater than 10 µM on Carbonic anhydrase 13.

As to `NS(=O)(=O)c1ccc(NC(=O)CN2C(=O)NC3(CCCCC3)C2=O)cc1`, the Ki was 0.0075 µM on Carbonic anhydrase 1; 0.0031 µM at Carbonic anhydrase 2; 0.0013 µM on Carbonic anhydrase 7; 0.0466 µM at Carbonic anhydrase 12; 0.0033 µM on Carbonic anhydrase 9; 0.809 µM at Carbonic anhydrase 13. Besides, in the test with Mus musculus [6], the outcome was inactive.
